Earlier results as cited in US7303775B1, “Carbohydrate ruminant feed energy supplement and method” (Penn State Research Foundation, priority 2003, dated 2007).

Assays:
insulin = conditions: compared with sucrose or glucose
rat liver = conditions: compared with glucose
glucagon = conditions: oral, same dose, humans

SMILES | potency as insulin secretagogue (insulin) | rate of conversion to fat by rat liver (rat liver) | effect on glucagon (glucagon)
O=C(CO)[C@@H](O)[C@H](O)[C@H](O)CO [fructose] | less potent | much higher rate | did not
OC[C@H]1O[C@@](CO)(O[C@H]2O[C@H](CO)[C@@H](O)[C@H](O)[C@H]2O)[C@@H](O)[C@@H]1O [sucrose, reference compound] | – | – | decline
